43 compounds from patent US7538241B2, “Hsp90 family protein inhibitors” (Kyowa Hakko Kogyo Co., Ltd., priority 2003, dated 2009) can be followed below.

A value given as a limit tells only on which side of the number the result lay.

The subject of this test is human mammary cancer-derived KPL-4 cells. The test is described as follows: Cell growth inhibition test with KPL-4 cells (WST-1). The test is classed as cell-based. Conditions: KPL4, 72 hours, read-out: 50% growth inhibition concentration (GI50). The protocol:
In a 96-well plate (Nunc), human mammary cancer-derived KPL-4 cells were sown in an amount of 2000 cells/well, and pre-incubated in 10% fetal calf serum (FCS)-containing Dulbecco Modified Eagle Medium (DMEM) (incubation medium) in a 5% carbon dioxide incubator at 37° C. for 24 hours. A dimethylsulfoxide (DMSO) solution of a test compound controlled at 10 mmol/L was stepwise diluted with the incubation medium, and added to each well in a total amount of 100 μL/well, and incubated in the 5% carbon dioxide incubator at 37° C. for 72 hours. After the incubation, WST-1 {4-[3-(4-Iodophenyl)-2-(4-nitrophenyl)-2H-5-tetrazolio]-1,3-benzene disulfonate}-labeled mixture (Rosh Diagnostic) diluted 2-fold with the incubation medium was added thereto in an amount of 20 μL/well, and incubated in the 5% carbon dioxide incubator at 37° C. for 1 hour. Using a microplate spectrophotometer (Biorad's Model 550), the absorbance at 450 nm and 655 nm of each well was measured. The cell growth inhibition activity of the test compound was indicated by the 50% growth inhibition concentration (GI50) thereof. A method of calculating GI50 is described. The absorbance at 655 nm of each well was subtracted from the absorbance at 450 nm thereof to give a value (absorbance difference). The absorbance difference obtained with the cells without being treated with the test compound was taken as 100%, and this was compared with the absorbance difference obtained with the cells treated with the test compound to give the concentration of the compound for 50% cell growth inhibition, and this is referred to as GI50.
(In general: Tetrazolium dyes change colour on reduction, which living cells bring about.)

As to `COc1c(Br)c(O)cc(O)c1-c1ccccc1` [Compound 61, 6-Bromo-5-methoxy-4-phenylbenzene-1,3-diol], the GI50 is at most 50 µM.

In the case of `CN(C)C(=O)Cc1c(Br)c(O)cc(O)c1-c1ccccc1` [Compound 43, 2-(2-Bromo-3,5-dihydroxy-6-phenylphenyl)-N,N-dimethylacetamide], the GI50 is at most 50 µM. The figure for `OCCc1c(Br)c(O)cc(O)c1-c1ccccc1` [Compound 62, 6-Bromo-5-(2-hydroxyethyl)-4-phenylbenzene-1,3-diol] is at most 50 µM; for `COC(=O)CCc1ccc(-c2c(O)cc(O)c(Br)c2CC(=O)OC)o1` [Compound 267, Methyl 3-{5-[5-bromo-2,4-dihydroxy-6-(methoxycarbonylmethyl)phenyl]furan-2-yl}propanoate] it is at most 50 µM; for `CCc1c(O)cc(O)c(-c2cccc(OCc3ccccn3)c2)c1CCOCC(O)CO` (stereo not shown) [Compound 190, 5-[2-(2,3-Dihydroxypropoxy)ethyl]-6-ethyl-4-[3-(pyridin-2-ylmethyloxy)phenyl]benzene-1,3-diol] it is at most 50 µM. The figure for `CCc1cc(-c2nc3ccccc3n2-c2ccccc2)c(O)cc1O` [Compound 279, 6-Ethyl-4-(1-phenylbenzimidazol-2-yl)benzene-1,3-diol] is at most 50 µM.

Regarding `Oc1cc(O)c(-c2ccccc2)c(CCOCC2CCCO2)c1Br` (stereo not shown) [Compound 109, 6-Bromo-5-[2-(oxolan-2-ylmethoxy)ethyl]-4-phenylbenzene-1,3-diol], the GI50 is at most 50 µM. The figure for `CC(O)CCc1c(Br)c(O)cc(O)c1-c1ccccc1` (stereo not shown) [Compound 115, 5-(3-Hydroxybutyl)-6-bromo-4-phenylbenzene-1,3-diol] is at most 50 µM; for `COCCCc1c(Br)c(O)cc(O)c1-c1ccccc1` [Compound 97, 6-Bromo-5-(3-methoxypropyl)-4-phenylbenzene-1,3-diol] it is at most 50 µM; for `COC(=O)Cc1cc(O)cc(O)c1-c1cccc(C#N)c1` [Compound 78, Methyl 2-(3-cyanophenyl)-3,5-dihydroxyphenylacetate] it is at most 50 µM. The value for `CCc1c(O)cc(O)c(-c2ccccc2)c1CCCOCC(=O)N(C)C` [Compound 160, 2-[3-(2-Ethyl-3,5-dihydroxy-6-phenylphenyl)propoxy]-N,N-dimethylacetamide] was at most 50 µM. The value for `CCc1c(O)cc(O)c(-c2ccccc2)c1CCOCC(O)COCCO` (stereo not shown) [Compound 179, 6-Ethyl-5-{2-[2-hydroxy-3-(2-hydroxyethoxy)propoxy]ethyl}-4-phenylbenzene-1,3-diol] was at most 50 µM. For the compound `CCc1c(O)cc(O)c(-c2ccccc2)c1CC(O)CO` (stereo not shown) [Compound 182, 6-Ethyl-5-(2,3-dihydroxypropyl)-4-phenylbenzene-1,3-diol], the GI50 is at most 50 µM. The figure for `O=C(c1ccccc1)c1c(Br)c(O)cc(O)c1-c1ccccc1` [Compound 58, 2-Bromo-3,5-dihydroxy-6-phenylphenyl phenyl ketone] is at most 50 µM; for `COC(=O)C=Cc1c(Br)c(O)cc(O)c1-c1ccccc1` [Compound 59, Methyl 3-(2-bromo-3,5-dihydroxy-6-phenylphenyl)acrylate] it is at most 50 µM; for `CCc1c(O)cc(O)c(-c2ccccc2)c1CCC(O)C(CO)CO` (stereo not shown) [Compound 185, 6-Ethyl-5-[3,5-dihydroxy-4-(hydroxymethyl)pentyl]-4-phenylbenzene-1,3-diol] it is at most 50 µM. As to `CCc1c(O)cc(O)c(-c2cccc(OCc3csc(C)n3)c2)c1CCOCC(O)CO` (stereo not shown) [Compound 193, 5-[2-(2,3-Dihydroxypropoxy)ethyl]-6-ethyl-4-[3-(2-methyl-1,3-thiazol-4-ylmethyloxy)phenyl]benzene-1,3-diol], the GI50 is at most 50 µM. Turning to `CCOc1cccc(-c2c(O)cc(O)c(C(C)=O)c2CCOC)c1` [Compound 121, 1-[2,4-Dihydroxy-5-(3-ethoxyphenyl)-6-(2-methoxyethyl)phenyl]ethanone], the GI50 was at most 50 µM. For the compound `CCc1cc(-c2nc3ccccc3[nH]2)c(O)cc1O` [Compound 278, 4-Benzimidazol-2-yl-6-ethylbenzene-1,3-diol], the GI50 is at most 50 µM. The value for `CCCc1c(O)cc(O)c(-c2ccccc2)c1CCOC` [Compound 95, 5-(2-Methoxyethyl)-4-phenyl-6-propylbenzene-1,3-diol] was at most 50 µM; that for `CCc1c(O)cc(O)c(-c2cccc(OC)c2)c1CC(=O)OC` [Compound 142, Methyl 2-ethyl-3,5-dihydroxy-6-(3-methoxyphenyl)phenylacetate] was at most 50 µM; that for `COC(=O)Cc1cc(O)cc(O)c1-c1ccc2c(c1)OCO2` [Compound 273, Methyl 2-(1,3-benzodioxolan-5-yl)-3,5-dihydroxyphenylacetate] was at most 50 µM. The figure for `CCc1c(O)cc(O)c(-c2ccccc2)c1CCCOCC(=O)NCCOC` [Compound 168, 2-[3-(2-Ethyl-3,5-dihydroxy-6-phenylphenyl)propoxy]-N-(2-methoxyethyl)acetamide] is at most 50 µM; for `COC(=O)Cc1c(C)c(O)cc(O)c1-c1ccccc1` [Compound 56, Methyl 3,5-dihydroxy-6-methyl-2-phenylphenylacetate] it is at most 50 µM.

For `COCCc1c(CC(C)=O)c(O)cc(O)c1-c1ccccc1` [Compound 94, 1-[2,4-Dihydroxy-6-(2-methoxyethyl)-5-phenylphenyl]propanone], the GI50 is at most 50 µM. The figure for `CCc1c(O)cc(O)c(-c2cccc(CCC(C)O)c2)c1CCOCCOC` (stereo not shown) [Compound 154, 6-Ethyl-4-[3-(3-hydroxybutyl)phenyl]-5-[2-(2-methoxyethoxy)ethyl]benzene-1,3-diol] is at most 50 µM; for `COC(=O)c1c(Br)c(O)cc(O)c1-c1ccccc1` [Compound 47, Methyl 2-bromo-3,5-dihydroxy-6-phenylbenzoate] it is at most 50 µM; for `CN(CCc1ccccn1)C(=O)Cc1c(Br)c(O)cc(O)c1-c1ccccc1` [Compound 89, 2-(2-Bromo-3,5-dihydroxy-6-phenylphenyl)-N-methyl-N-[2-(pyridin-2-yl)ethyl]acetamide] it is at most 50 µM. The value for `NC(=O)Cc1c(Br)c(O)cc(O)c1-c1ccccc1` [Compound 41, 2-(2-Bromo-3,5-dihydroxy-6-phenylphenyl)acetamide] was at most 50 µM. The value for `CCc1c(O)cc(O)c(-c2cccc(CCC(C)=O)c2)c1CCOCCOC` [Compound 153, 4-(3-{5-Ethyl-2,4-dihydroxy-6-[2-(2-methoxyethoxy)ethyl]phenyl}phenyl)butan-2-one] was at most 50 µM. On to `COC(=O)Cc1cc(O)cc(O)c1-c1cccc(OC)c1` [Compound 81, Methyl 3,5-dihydroxy-2-(3-methoxyphenyl)phenylacetate], for which the GI50 was at most 50 µM. The value for `CNCCc1c(Br)c(O)cc(O)c1-c1ccccc1` [Compound 98, 6-Bromo-5-[2-(N-methylamino)ethyl]-4-phenylbenzene-1,3-diol] was at most 50 µM; that for `COCCc1c(Br)c(O)cc(O)c1-c1ccco1` [Compound 243, 6-Bromo-4-(furan-2-yl)-5-(2-methoxyethyl)benzene-1,3-diol] was at most 50 µM; that for `COCCc1c(OC)c(O)cc(O)c1-c1ccccc1` [Compound 129, 6-Methoxy-5-(2-methoxyethyl)-4-phenylbenzene-1,3-diol] was at most 50 µM. The value for `CCc1c(O)cc(O)c(-c2ccccc2)c1CCOCC(N)=O` [Compound 155, 2-[2-(2-Ethyl-3,5-dihydroxy-6-phenylphenyl)ethoxy]acetamide] was at most 50 µM; that for `COCCc1c(C(C)=O)c(O)cc(O)c1-c1cccc(-c2ccccc2)c1` [Compound 120, 1-[2,4-Dihydroxy-6-(2-methoxyethyl)-5-(3-phenylphenyl)phenyl]ethanone] was at most 50 µM; that for `Oc1cc(O)c(-c2ccccc2)c(COCc2ccccc2)c1Br` [Compound 25, 5-(Benzyloxymethyl)-6-bromo-4-phenylbenzene-1,3-diol] was at most 50 µM. For the compound `COC(=O)Cc1c(-c2ccccc2)c(O)cc(O)c1-c1ccccc1` [Compound 11, Methyl 3,5-dihydroxy-2,6-diphenylphenylacetate], the GI50 was at most 50 µM. As for `CCc1c(O)cc(O)c(-c2ccccc2)c1CCCOCC(N)=O` [Compound 158, 2-[3-(2-Ethyl-3,5-dihydroxy-6-phenylphenyl)propoxy]acetamide], the GI50 was at most 50 µM. With `CCc1c(O)cc(O)c(-c2ccccc2)c1CCOCc1cccnc1` [Compound 188, 6-Ethyl-4-phenyl-5-[2-(pyridin-3-ylmethoxy)ethyl]benzene-1,3-diol], the GI50 was at most 50 µM. The value for `Oc1cc(O)c(-c2ccccc2)c(COCC2CCCO2)c1Br` (stereo not shown) [Compound 85, 6-Bromo-5-[(oxolan-2-ylmethoxy)methyl]-4-phenylbenzene-1,3-diol] was at most 50 µM.

With `CCOC(=O)CCc1ccc(-c2c(O)cc(O)cc2COCc2ccccc2)o1` [Compound 236, Ethyl 3-{5-[6-(benzyloxymethyl)-2,4-dihydroxyphenyl]furan-2-yl}propanoate], the GI50 was at most 50 µM.

Turning to `COCCc1c(C(=O)C(F)(F)F)c(O)cc(O)c1-c1ccccc1` [Compound 125, 1-[2,4-Dihydroxy-6-(2-methoxyethyl)-5-phenylphenyl]-2,2,2-trifluoroethanone], the GI50 was at most 50 µM.
